Test results published in patent US7030245B2, “Antidepressant azahetorocyclylmethyl derivatives of 7,8-dihydro-6H-5-oxa-1-aza-phenathrene” (Wyeth, priority 2001, dated 2006).
Structures can show the parent of a compound that is named as a salt.

Key:
[1] = molecular target: T1, cloned human 5-HT1A receptors (Homo sapiens, UniProt P08908); experiment: 35S-GTPγS binding assay, 5-HT1A function; assay type: biochemical; conditions: for EC50: 35S-GTPγS binding to membranes containing cloned human 5-HT1A receptors; for Emax: maximum stimulatory effect on 35S-GTPγS binding, value in parentheses
T1 construct: expressed in transfected cells
T1 sequence (P08908 1-422): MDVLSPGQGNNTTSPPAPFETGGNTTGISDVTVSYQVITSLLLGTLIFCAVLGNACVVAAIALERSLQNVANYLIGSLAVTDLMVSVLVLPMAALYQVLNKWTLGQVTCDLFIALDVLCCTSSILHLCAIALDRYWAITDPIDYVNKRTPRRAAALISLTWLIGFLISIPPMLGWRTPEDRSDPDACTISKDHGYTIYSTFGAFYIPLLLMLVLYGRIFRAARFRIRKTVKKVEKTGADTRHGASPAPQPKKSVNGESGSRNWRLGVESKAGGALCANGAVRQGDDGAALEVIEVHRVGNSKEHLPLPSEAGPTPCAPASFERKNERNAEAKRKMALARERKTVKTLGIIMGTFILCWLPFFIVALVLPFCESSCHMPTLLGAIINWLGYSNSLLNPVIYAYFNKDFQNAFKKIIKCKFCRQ
Procedure: Agonist activity at 5-HT1A receptors was established by using a ^35S-GTPγS binding assay similar to that used by Lazareno and Birdsall (Br. J. Pharmacol. 109: 1120, 1993), in which the test compound's ability to affect the binding of ^35S-GTPγS to membranes containing cloned human 5-HT1A receptors was determined. Agonists produce an increase in binding whereas antagonists produce no increase but rather reverse the effects of the standard agonist 8-OHDPAT. The test compound's maximum stimulatory effect is represented as the Emax, while its potency is defined by the EC50.

serotonin transporter = molecular target: T2, serotonin transporter (Rattus norvegicus, UniProt P31652); experiment: 3H-paroxetine displacement, serotonin transporter affinity; assay type: binding
T2 construct: displace ^3H-paroxetine from male rat frontal cortical membranes; from tissue; host or cells: male rat frontal cortex membranes
T2 sequence (P31652 whole entry): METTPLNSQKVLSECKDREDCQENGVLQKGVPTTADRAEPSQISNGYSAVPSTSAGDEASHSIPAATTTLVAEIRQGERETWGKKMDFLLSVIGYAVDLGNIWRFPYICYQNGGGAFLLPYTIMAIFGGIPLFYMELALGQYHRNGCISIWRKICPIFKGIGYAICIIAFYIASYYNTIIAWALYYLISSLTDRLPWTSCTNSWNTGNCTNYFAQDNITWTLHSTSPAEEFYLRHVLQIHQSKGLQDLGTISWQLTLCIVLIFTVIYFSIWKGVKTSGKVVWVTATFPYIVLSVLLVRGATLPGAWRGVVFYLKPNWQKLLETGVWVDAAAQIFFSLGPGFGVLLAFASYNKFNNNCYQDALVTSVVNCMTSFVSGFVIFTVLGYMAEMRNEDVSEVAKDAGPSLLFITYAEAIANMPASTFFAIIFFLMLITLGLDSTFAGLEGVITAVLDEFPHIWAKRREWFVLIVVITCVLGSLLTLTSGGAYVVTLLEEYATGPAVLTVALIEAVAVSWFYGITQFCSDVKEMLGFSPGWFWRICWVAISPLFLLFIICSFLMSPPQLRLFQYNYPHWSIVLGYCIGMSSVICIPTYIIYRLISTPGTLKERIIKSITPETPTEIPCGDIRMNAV

human 5-HT1A receptors = molecular target: T3, human 5-HT1A receptors (Homo sapiens, UniProt P08908); experiment: [3H] 8-OHDPAT displacement, 5-HT1A receptor affinity; assay type: binding; conditions: displacement of [3H] 8-OHDPAT; CHO cells stably transfected with human 5-HT1A receptors
T3 construct: expressed in transfected cells; host or cells: CHO cells, stably transfected
T3 sequence (P08908 1-422): T1 sequence (P08908 1-422)
Description: High affinity for the serotonin 5-HT1A receptor was established by testing the claimed compound's ability to displace [^3H] 8-OHDPAT (dipropylaminotetralin) from the 5-HT1A serotonin receptor following a modification of the procedure of Hall et al., J. Neurochem. 44, 1685 (1985) which utilizes CHO cells stably transfected with human 5-HT1A receptors.

Fc1ccc2[nH]cc(C3=CCN(C[C@H]4CCc5ccc6ncccc6c5O4)CC3)c2c1 (as salt: fumarate) [Example 3, (6R)-6-[4-(5-Fluoro-1H-indol-3-yl)-3,6-dihydro-2H-pyridin-1-ylmethyl]-7,8-dihydro-6H-5-oxa-1aza-phenanthrene] gave a melting point of 210 °C.
Compound Fc1ccc2[nH]cc(C3=CCN(CC4CCc5ccc6ncccc6c5O4)CC3)c2c1 (centres unmarked) (as salt: oxalate) [Example 1, 6-[4-(5-Fluoro-1H-indol-3-yl)-3,6-dihydro-2H-pyridin-1-ylmethyl]-7,8-dihydro-6H-5-oxa-1aza-phenanthrene] has a melting point of 148 °C.
Fc1ccc2[nH]cc(C3=CCN(C[C@@H]4CCc5ccc6ncccc6c5O4)CC3)c2c1 (as salt: oxalate) [Example 2, (6S)-6-[4-(5-Fluoro-1H-indol-3-yl)-3,6-dihydro-2H-pyridin-1-ylmethyl]-7,8-dihydro-6H-5-oxa-1aza-phenanthrene] showed a melting point of 210 °C.
Fc1ccc2[nH]cc(C3=CCN(CC4CCc5ccc6ncccc6c5O4)CC3)c2c1 (centres unmarked) [Example 1, 6-[4-(5-Fluoro-1H-indol-3-yl)-3,6-dihydro-2H-pyridin-1-ylmethyl]-7,8-dihydro-6H-5-oxa-1aza-phenanthrene] gave an EC50 [1] of 103 nM, an Emax [1] of 49% and a Ki (serotonin transporter) of 8 nM. The Ki (human 5-HT1A receptors) was 60.9 nM.
Fc1ccc2[nH]cc(C3=CCN(C[C@@H]4CCc5ccc6ncccc6c5O4)CC3)c2c1 [Example 2, (6S)-6-[4-(5-Fluoro-1H-indol-3-yl)-3,6-dihydro-2H-pyridin-1-ylmethyl]-7,8-dihydro-6H-5-oxa-1aza-phenanthrene] gave an Emax [1] of 5%, a Ki (serotonin transporter) of 5.96 nM and a Ki (human 5-HT1A receptors) of 88.6 nM.
In the case of Fc1ccc2[nH]cc(C3=CCN(C[C@H]4CCc5ccc6ncccc6c5O4)CC3)c2c1 [Example 3, (6R)-6-[4-(5-Fluoro-1H-indol-3-yl)-3,6-dihydro-2H-pyridin-1-ylmethyl]-7,8-dihydro-6H-5-oxa-1aza-phenanthrene], the EC50 [1] is reported as 78.9 nM, the Emax [1] is reported as 52% and the Ki (serotonin transporter) is reported as 6 nM. The Ki (human 5-HT1A receptors) was 82.3 nM.
